Test results from patent US6677309B1, “Anti-cancer drug aldehyde conjugate drugs with enhanced cytotoxicity compounds, compositions and methods” (University Technology Corporation, priority 1997, dated 2004).
Like-named read-outs stand apart in the source and are kept apart here.

Tests used:
LNCaP = assay: Prostate cancer cell cytotoxicity, crystal violet assay, LNCaP; assay type: cell-based, human; conditions: Homo sapiens, LNCaP
Experimental: (§1) Toxicity to the three prostate cancer cell lines, LNCaP, DU-145, and PC-3 were measured in two different media, RPMI-1640 and DMEM (Dulbecco's Modified Eagle Medium), both supplemented with 10% fetal bovine serum.
(§2) Cell lines were maintained in vitro in RPMI 1640 media or DMEM, each supplemented with 10% fetal bovine serum, 2 mM L-glutamine, 10 mM HEPES buffer, penicillin (100 units/mL) and streptomycin (100 μg/mL).
(§3) Cells were dissociated with trypsin/EDTA, counted, and suspended in growth media (RPMI or DMEM) to a concentration of 5.6×10^3 cells/mL. Cell suspensions were dispensed in 180 μL aliquots into 96-well tissue culture plates. […] Each 100× solution was diluted 10× in growth media (RPMI or DMEM), and a 20 μL aliquot of the resulting 10× solution was immediately (<10s) added to-the appropriate lane. Additionally, one lane was treated with 20 μL of 10% DMSO in growth media (no drug) and one lane was treated with 200 μL of 1.5 M Tris buffer (no cells). The cells were incubated with the drugs for 3 h at 37° C. The drug solutions were then removed and replaced with 200 μL of fresh media. The cells were incubated for 4 days (7 days for PC-3 cells in DMEM) at 37° C. in a humidified atmosphere of 5% CO2 and 95% air. Cell survival was determined using a crystal violet assay as described earlier (Fenick, D. J. et al (1997) J. Med. Chem. 40: 2452-2461).

DU-145 = assay: Prostate cancer cell cytotoxicity, crystal violet assay, DU-145; assay type: cell-based, human; conditions: Homo sapiens
Experimental: as §1, §2, §3

PC-3 = assay: Prostate cancer cell cytotoxicity, crystal violet assay, PC-3; assay type: cell-based, human; conditions: Homo sapiens
Experimental: as §1, §2, §3

[1] = Hydrolysis in aqueous phosphate buffer, HPLC; assay type: physicochemical; conditions: serum; read-out: estimated half-life
Experimental: See Example 16. […] The DMSO was present to increase solubility.
Second, the kinetics of hydrolysis were measured in pH 6.0 phosphate buffer.
A 960 μL solution of pH 7.3 phosphate buffer was heated to 37° C. […] No change in the chromatography was observed if pH, 7.3 phosphate buffer was used as the eluent in place of pH 7.4 TEAA buffer.

MCF-7/ADR cells = assay: In vitro cytotoxicity, colony formation by crystal violet assay, MCF-7/ADR
Experimental: (§4) The term IC50 as used herein refers to the concentration of drug which inhibits cell growth by 50%, i.e., 50% of cells are viable at the IC50 concentration relative to a no-drug control.
(§5) Cells were incubated with drug for 3 h in RPMI (Roswell Park Memorial Institute) 1640 media containing 10% fetal bovine serum and 1% DMSO. Plates, were developed using the crystal violet assay. […] In all cases percent survival was determined by the extent of colony formation six days after drug treatment.
(§6) All tissue culture materials were obtained from Gibco Life Technologies (Grand Island, N.Y.) unless otherwise stated. MCF-7 breast cancer cells were obtained from American Type Culture Collection (Rockville, Md.). […] Both cell lines were maintained in vitro by serial culture in phenol red-free RPMI Media 1640 supplemented with 10% fetal bovine serum (Gemini Bio-Products, Calbasas, Calif.), L-glutamine (2 mM), HEPES buffer (10 mM), penicillin (100 units/mL), and streptomycin (100 μg/mL). […] Cells were maintained at 37° C. in a humidified atmosphere of 5% CO2 and 95% air.
(§7) Cells were dissociated with trypsin-EDTA, counted, and suspended in growth media to a concentration of 5×10^3 cells/mL. Cell suspensions were dispensed in 200 μL aliquots into 96-well tissue culture plates. Plates were then incubated for 24 h at 37° C. in a humidified atmosphere of 5% CO2 and 95% air. The media was replaced with 180 μL of growth media prior to addition of the cytotoxic agents.
(§8) Concentrations were then corrected by measuring the solution absorbance at 480 nm (ε=11,500/mole anthracycline). The solutions were then serially diluted in DMSO to give a series of 100× working concentration solutions. For each concentration, the 100× solution was diluted 1:10 in serum-free RPMI Media 1640. 20 μL of the resulting […] solution was immediately added to the appropriate lane. Additionally, one lane was treated with 20 μL of 10% DMSO in serum-free RPMI (no drug) and one lane replaced with 200 μL of 1.5 M Tris buffer (no cells). The cells were incubated at 37° C. for 3 h. The drug solutions were removed and 200 μL of fresh growth media was added to each well.
(§9) The extent of colony formation was determined by use of a crystal violet staining assay (Gilles, R. J. et al. (1986), “Determination of cell number in monolayer cultures,” Anal. Biochem. 159:109-113; Reile, H. et al. (1990), “Computerized determination of growth kinetic curves and doubling times from cells in microcultures,” Anal. Biochem. 187:262-267). […] The cells were then stained with 75 μL of 0.1% crystal violet in deionized water for 30 min. […] The plates were blotted dry and 200 μL of 70% ethanol in water was added to each well to solublize the dye. The plates were stored at 4° C. until solubilization was complete (about 4 h). The optical density of each well was measured on an ELISA plate reader at 588 nm. Relative colony sizes were determined by comparison of the drug treated lanes to the control lanes.
(§10) MCF-7 breast cancer cells were obtained from American Type Culture Collection (Rockville, Md.). MCF-7/ADR adriamycin resistant breast cancer cells were a gift of Dr. William W. Wells (Michigan State University). Both cell lines were maintained in vitro by serial culture in phenol red-free RPMI Media 1640 supplemented with 10% fetal bovine serum (Gemini Bio-Products, Calbasas, Calif.), L-glutamine (2 mM), HEPES buffer ([…]), penicillin (100 units/mL), and streptomycin (100 μg/mL). […] Cells were maintained at 37° C. in a humidified atmosphere of 5% CO2 and 95% air.
These were then diluted 10× with autoclaved Millipore water.

MCF-7 cells = assay: In vitro cytotoxicity, colony formation by crystal violet assay, MCF-7
Experimental: as §4, §5, §6, §7, §8, §9, §10
1640 media containing 10% fetal bovine serum. The resulting 90% media/10% DMSO solutions (v/v) were incubated at 37° C. for 6h.

[2] = Stability in DMSO and DMSO/water, NMR or HPLC; assay type: physicochemical; conditions: HPLC
Experimental: Crystalline dimeric formaldehyde conjugate of daunorubicin (2.8 mg, 2.6 μmol) was dissolved in 500 μL of DMSO-d6 (stored over 3 A molecular sieves) and analyzed by 400 MHz, ^1H NMR. […] Upon addition of 25 μL of D2O to the 500 μL DMSO-d6 sample, the dimeric formaldehyde conjugate of daunorubicin reacted over a 24 h period to form an equilibrium mixture consisting of 67% dimeric formaldehyde conjugate of daunorubicin and 32% of an intermediate. Because of the complexity of the spectrum, a structure could not be assigned to the intermediate; however, the intermediate appeared to have an oxazolidine ring. Upon addition of 3 equiv of hydrochloric acid in 130 μL of deuterium oxide, hydrolysis to daunorubicin-HCl was complete. The hydrochloric acid solution was prepared by the addition of 10 μL of concentrated HCl to 990 μL of D2O. The formaldehyde released from the dimeric formaldehyde conjugate of daunorubicin was detected as its hydrate. The final product was identified as daunorubicin by comparison of the NMR spectrum with that of a sample of daunorubicin plus 3 equiv of HCl. Further, the final product was isolated by removal of all volatile components under vacuum (0.1 Torr), and its ^1H NMR spectrum was identical to that of daunorubicin-HCl.
Amorphous dimeric formaldehyde conjugate of daunorubicin, when worked up in methylene chloride, was stable in DMSO for at least 4 days. It hydrolyzed with added D2O and hydrochloric acid in a manner similar to that of the crystalline material. When worked up in chloroform, amorphous dimeric formaldehyde conjugate of daunorubicin had less stability in DMSO, presumably due to traces of HCl from the chloroform.
A 1.3 mg sample of N-acetyl-3′-N,4′-O-methylenedaunorubicin was dissolved in […] of DMSO and analyzed over time by HPLC. […] At this time, […] of water was added to the DMSO/N-acetyl monomeric formaldehyde conjugate of daunorubicin solution, establishing a 50:50 DMSO:water mixture (v/v). In this solution, the N-acetyl-3′-N,4′-O-methylenedaunorubicin remained 91% intact (9% degradation to daunorubicin) over a period of 6 days, based upon the HPLC analysis.
A pH 6 triethyl ammonium acetate solution containing 13.1 μmol of epidoxorubicin-HCl and 6.6 mmol of […] was allowed to react in the dark at 25° C. for 30 min. The mixture was then extracted with chloroform with vigorous stirring for 20 min. The chloroform solution was dried over sodium sulfate and the chloroform removed by rotary evaporation. The resulting dry solid was redissolved in 1.0 mL of chloroform. To this was added 10 mL of n-hexane. After 2 days, a large amount of precipitate had formed, which was washed with 3×5 mL of n-hexane, followed by 4×1 mL of water.
The sample was maintained at ambient temperature for 2 h; after this period no change in the spectrum was observed. […] A stock 122 mM solution of HCl in D2O was prepared by adding concentrated hydrochloric acid to D2O. […] Complete hydrolysis occurred upon addition of ca. 2-3 equiv of HCl. A similar experiment was performed using HCl in H2O. […] This solution was incubated at 37° C. for 24 h prior to NMR analysis.

[3] = relative to the respective parent drug
[4] = 50:50 DMSO:water (v/v), over 6 days

For COc1cccc2c1C(=O)c1c(O)c3c(c(O)c1C2=O)CC(O)(C(=O)CO)CC3OC1CC2C(OCN2CN2CO[C@@H]3C(C)O[C@H](OC4CC(O)(C(=O)CO)Cc5c(O)c6c(c(O)c54)C(=O)c4c(OC)cccc4C6=O)CC32)C(C)O1 (stereo partly drawn) [DOXF, bis(3′-N-(3′-N,4′-O-methylenedoxorubicinyl))methane], the IC50 (LNCaP; read-out: IC50 Values, LNCaP/DMEM) was 500 pM, the IC50 (LNCaP; read-out: IC50 Values, LNCaP/RPMI-1640) was 500 pM and the IC50 (DU-145; DU-145, read-out: IC50 Values, DU-145/DMEM) was 1500 pM. For the same compound, the IC50 (DU-145; DU-145, read-out: IC50 Values, DU-145/RPMI-1640) was 2000 pM, the IC50 (PC-3; PC-3, read-out: IC50 Values, PC-3/DMEM) was 4500 pM and the IC50 (PC-3; PC-3, read-out: IC50 Values, PC-3/RPMI-1640) was 500 pM. For the same compound, the half-life [1] was less than 10 min, the IC50 (MCF-7/ADR cells; Homo sapiens, NCI/ADR-RES, read-out: IC50 Values, MCF-7-ADR) was 500 pM and the “fold higher cytotoxicity against MCF-7/ADR cells relative to the parent drug” value (MCF-7/ADR cells; [3]) was 10,000 fold. The IC50 (MCF-7 cells; Homo sapiens, MCF7, read-out: IC50 Values, MCF-7) was 1000 pM, the “times more cytotoxic against the MCF-7 cell line than the parent drug” value (MCF-7 cells; relative to daunorubicin and doxorubicin, respectively) was 150 times and the “fold more toxic to MCF-7 cells than the parent drug” value (MCF-7 cells; [3]) was 150 fold.
In the case of “N-acetyl-3′-N,4′-O-methylenedaunorubicin”, the degradation to daunorubicin [2, 4] is reported as 9%, the fraction remaining intact [2, 4] is reported as 91% and the “degradation in DMSO solution” value ([2]; DMSO, after 2 h) is reported as “no degradation”.
